The text below walks through data of US20140213538A1, “LYSOPHOSPHATIDIC ACID RECEPTOR ANTAGONISTS” (InterMune, Inc., priority 2013, published 2014).

T1 sequence (Q92633 whole entry): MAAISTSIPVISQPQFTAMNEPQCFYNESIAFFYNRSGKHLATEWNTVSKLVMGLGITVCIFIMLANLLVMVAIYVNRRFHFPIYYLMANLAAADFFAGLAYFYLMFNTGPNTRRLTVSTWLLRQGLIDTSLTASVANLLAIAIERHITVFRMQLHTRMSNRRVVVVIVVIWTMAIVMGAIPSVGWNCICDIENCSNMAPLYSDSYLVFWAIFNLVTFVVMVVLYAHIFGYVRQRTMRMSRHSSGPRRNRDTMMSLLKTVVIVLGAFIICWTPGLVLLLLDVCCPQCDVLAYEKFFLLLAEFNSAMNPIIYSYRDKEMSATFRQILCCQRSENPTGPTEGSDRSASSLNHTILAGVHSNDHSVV

This assay concerns the target T1, LPA/S1P GPCR of interest (Homo sapiens, UniProt Q92633).
T1 construct: host or cells: CHO
Put plainly: Beta-Arrestin based assay (PathHunter). It counts as cell-based. Here is the method:
CMV promoter based DNA constructs expressing a fusion of the LPA/S1P GPCR of interest and ProLink™ tag were used to transfect EA Parental™ CHO cells (DiscoverX, Fremont, Calif.) using a FuGENE® transfection kit (Roche). Beta-Arrestin based assays were conducted 24-48 hrs post transfection using PathHunter® assay kits (DiscoverX, Fremont, Calif.). Agonist and antagonist assays were performed in quadruplicate in white 384 well plates. End point luminescence data were plotted and fit to a 4 parameter logistic function to obtain IC50 values. For antagonist assays, an IC80 concentration of agonist (LPA) equal to 0.5 micromolar was used.
`C[C@@H](OC(=O)Nc1c(-c2ccc(C#CC(=O)N(C)CCC(=O)O)cc2)cnn1C)c1ccccc1` [IT466]: the EC50 is > 500 nM.
The same measure for `C[C@@H](OC(=O)Nc1c(-c2cc3sc(-c4ccc(CC(=O)O)c5ccccc45)cc3s2)nnn1C)c1ccccc1` [IT318]: > 500 nM; for `COc1cc(C2(C(=O)O)CC2)c(F)cc1-c1cc2sc(-c3snc(C)c3NC(=O)O[C@H](C)c3ccccc3)cc2s1` [IT412]: > 500 nM.
The same measure for `Cc1noc(-c2ccc(-c3ccc(Oc4cccc(C(=O)O)c4)cc3)cc2)c1NC(=O)O[C@H](C)c1ccccc1` [IT356]: 50 to 500 nM.
For `COc1cc(CC(=O)O)ccc1-c1cc2sc(-c3snc(C)c3NC(=O)O[C@H](C)c3ccccc3)cc2s1` [IT163], the EC50 is > 500 nM.
Turning to `C[C@@H](OC(=O)Nc1c(-c2ccc(C#CC(=O)O)cc2)cnn1C)c1ccccc1` [IT371], the EC50 was > 500 nM.
Take `Cc1nsc(-c2cc3sc(-c4ccc(C5(C(=O)O)CC5)cc4OC(F)(F)F)cc3s2)c1NC(=O)O[C@H](C)c1ccccc1` [IT387]: the concentration giving a half-maximal response (EC50) fell in the range of 50 to 500 nM.
For the compound `C[C@@H](OC(=O)Nc1c(-c2cc3sc(-c4ccc5occ(C6(C(=O)O)CC6)c5c4)cc3s2)cnn1C)c1ccccc1` [IT334], the EC50 was > 500 nM.
The same measure for `C[C@@H](OC(=O)Nc1c(-c2cc3sc(-c4ccc5scc(C6(C(=O)O)CC6)c5c4)cc3s2)cnn1C)c1ccccc1` [IT370]: > 500 nM; for `C[C@@H](OC(=O)Nc1c(-c2cc3sc(-c4ccc(C5(C(=O)O)CC5)c(S(C)(=O)=O)c4)cc3s2)nnn1C)c1ccccc1` [IT442]: > 500 nM.
For `Cc1cc(C2(C(=O)O)CC2)c(F)cc1-c1cc2sc(-c3cnn(C)c3NC(=O)O[C@H](C)c3ccccc3)cc2s1` [IT342] the value was < 50 nM; for `Cc1nsc(-c2cc3sc(-c4ccc5c(C6(C(=O)O)CC6)coc5c4)cc3s2)c1NC(=O)O[C@H](C)c1ccccc1` [IT397], > 500 nM; for `Cc1nsc(-c2cc3sc(-c4ccc(-c5nnc(CC(=O)O)o5)cc4)cc3s2)c1NC(=O)O[C@H](C)c1ccccc1` [IT207], > 500 nM.
For `COc1cc(C2(C(=O)O)CC2)c(OC)cc1-c1cc2sc(-c3cnn(C)c3NC(=O)O[C@H](C)c3ccccc3)cc2s1` [IT414] the value was > 500 nM.
With `C[C@@H](OC(=O)Nc1c(-c2cc3sc(-c4ccc5[nH]c(C6(C(=O)O)CC6)nc5c4)cc3s2)nnn1C)c1ccccc1` [IT422], the EC50 was > 500 nM.
`Cc1cc(-c2cc3sc(-c4nnn(C)c4NC(=O)O[C@H](C)c4ccccc4)cc3s2)c(F)cc1C1(C(=O)O)CC1` [IT340] returned an EC50 of 50 to 500 nM.
Regarding `Cc1noc(-c2ccc(-c3ccc(Oc4ccc(C(=O)O)o4)cc3)cc2)c1NC(=O)O[C@H](C)c1ccccc1` [IT388], the 50% effective concentration (EC50) lay within 50 to 500 nM.
Regarding `C[C@@H](OC(=O)Nc1c(-c2cc3sc(-c4ccc(C5(C(=O)O)CC5)c(S(C)(=O)=O)c4)cc3s2)cnn1C)c1ccccc1` [IT441], the EC50 is > 500 nM.
In the case of `C[C@@H](OC(=O)Nc1c(-c2cc3sc(-c4cnc(C5(C(=O)O)CC5)c(F)c4)cc3s2)cnn1C)c1ccccc1` [IT392], the EC50 was 50 to 500 nM.
Compound `Cc1noc(-c2ccc(-c3ccc(Oc4nnn(C)c4C(=O)O)cc3)cc2)c1NC(=O)O[C@H](C)c1ccccc1` [IT471] showed an EC50 of 50 to 500 nM.
Turning to `Cc1cc(-c2cc3sc(-c4cnn(C)c4NC(=O)O[C@H](C)c4ccccc4)cc3s2)c(F)cc1CC(=O)O` [IT243], the EC50 was > 500 nM.
For `C[C@@H](OC(=O)Nc1c(-c2ccc(C#CC(=O)NCCC(=O)O)cc2)cnn1C)c1ccccc1` [IT432], the EC50 was > 500 nM.
For `Cc1nsc(-c2cc3sc(-c4ccc5[nH]cc(CC(=O)O)c5c4)cc3s2)c1NC(=O)O[C@H](C)c1ccccc1` [IT283] the value was > 500 nM; for `COc1cc(C2(C(=O)O)CC2)c(OC)cc1-c1cc2sc(-c3nnn(C)c3NC(=O)O[C@H](C)c3ccccc3)cc2s1` [IT415], > 500 nM; for `C[C@@H](OC(=O)Nc1c(-c2ccc(C#CC(=O)NC3(C(=O)O)CC3)cc2)cnn1C)c1ccccc1` [IT405], > 500 nM.
As to `C[C@@H](OC(=O)Nc1c(-c2ccc(-c3cc(F)c(Oc4cc(F)ccc4C(=O)O)c(F)c3)cc2)nnn1C)c1ccccc1` [IT514], the EC50 is < 50 nM.
The same measure for `Cc1nsc(-c2cc3sc(-c4ccc(-c5nnc(C6(C(=O)O)CC6)s5)cc4)cc3s2)c1NC(=O)O[C@H](C)c1ccccc1` [IT289]: > 500 nM.
With `C[C@@H](OC(=O)Nc1c(-c2ccc(-c3ncc(C4(C(=O)O)CC4)s3)cc2)nnn1C)c1ccccc1` [IT239], the 50% effective concentration (EC50) was > 500 nM.
`Cc1cc(-c2cc3sc(-c4cnn(C)c4NC(=O)O[C@H](C)c4ccccc4)cc3s2)ccc1C1(C(=O)O)CC1` [IT323]: the EC50 was 50 to 500 nM.
For `C[C@@H](OC(=O)Nc1c(-c2cc3sc(-c4ccc5c(CC(=O)O)c[nH]c5c4)cc3s2)nnn1C)c1ccccc1` [IT378] the value was > 500 nM; for `Cc1nsc(-c2ccc(-c3ncc(C4(C(=O)O)CC4)s3)cc2)c1NC(=O)O[C@H](C)c1ccccc1` [IT210], > 500 nM.
Turning to `Cc1nsc(-c2cc3sc(-c4ccc5[nH]c(C6(C(=O)O)CC6)nc5c4)cc3s2)c1NC(=O)O[C@H](C)c1ccccc1` [IT421], the EC50 is > 500 nM.
For `Cc1nsc(-c2cc3sc(-c4ccc(CC(=O)O)c(S(C)(=O)=O)c4)cc3s2)c1NC(=O)O[C@H](C)c1ccccc1` [IT433] the value was > 500 nM; for `C[C@@H](OC(=O)Nc1c(-c2cc3sc(-c4ccc(-c5nnc(C6(C(=O)O)CC6)s5)cc4)cc3s2)cnn1C)c1ccccc1` [IT287], > 500 nM; for `Cc1nsc(-c2cc3sc(-c4ccc(CC(=O)O)cc4OC(F)(F)F)cc3s2)c1NC(=O)O[C@H](C)c1ccccc1` [IT384], > 500 nM.
Take `Cc1nsc(-c2cc3sc(-c4ccc(CC(=O)O)c(F)c4)cc3s2)c1NC(=O)O[C@H](C)c1ccccc1` [IT294]: the EC50 was 50 to 500 nM.
For `COc1cc(CC(=O)O)c(F)cc1-c1cc2sc(-c3cnn(C)c3NC(=O)O[C@H](C)c3ccccc3)cc2s1` [IT410] the value was > 500 nM; for `Cc1nsc(-c2cc3sc(-c4ccc5scc(CC(=O)O)c5c4)cc3s2)c1NC(=O)O[C@H](C)c1ccccc1` [IT354], > 500 nM.
For `C[C@@H](OC(=O)Nc1c(-c2ccc(C#CC(=O)Nc3ccc(C(=O)O)cc3)cc2)cnn1C)c1ccccc1` [IT431] the value was > 500 nM.
For the compound `Cc1cc(CC(=O)O)c(F)cc1-c1cc2sc(-c3cnn(C)c3NC(=O)O[C@H](C)c3ccccc3)cc2s1` [IT251], the EC50 lay in the range of 50 to 500 nM.
Turning to `Cc1noc(-c2ccc(-c3ccc(OC(C)C(=O)O)cc3)cc2)c1NC(=O)O[C@H](C)c1ccccc1` (single isomer, unassigned) [IT256], the concentration for a half-maximal effect (EC50) is < 50 nM.
For `COc1cc(C2(C(=O)O)CC2)c(F)cc1-c1cc2sc(-c3cnn(C)c3NC(=O)O[C@H](C)c3ccccc3)cc2s1` [IT411] the value was 50 to 500 nM.
The same measure for `C[C@@H](OC(=O)Nc1c(-c2ccc(-c3ccc(OC(C)(C)C(=O)O)cc3)cc2)oc2ccccc12)c1ccccc1` [IT508]: 50 to 500 nM; for `C[C@@H](OC(=O)Nc1c(-c2cc3sc(-c4ccc(CC(=O)O)c(F)c4)cc3s2)nnn1C)c1ccccc1` [IT293]: 50 to 500 nM; for `Cc1nsc(-c2cc3sc(-c4ccc5occ(CC(=O)O)c5c4)cc3s2)c1NC(=O)O[C@H](C)c1ccccc1` [IT333]: 50 to 500 nM.
In the case of `C[C@@H](NC(=O)Nc1c(C#Cc2cc3sc(C4(C(=O)O)CC4)cc3s2)cnn1C)c1ccccc1` [IT109], the EC50 is < 50 nM.
The same measure for `Cc1nsc(-c2ccc(-c3cnc(C4(C(=O)O)CC4)s3)cc2)c1NC(=O)O[C@H](C)c1ccccc1` [IT202]: 50 to 500 nM; for `COc1cc(-c2cc3sc(-c4snc(C)c4NC(=O)O[C@H](C)c4ccccc4)cc3s2)cnc1C1(C(=O)O)CC1` [IT359]: 50 to 500 nM.
For the compound `C[C@@H](OC(=O)Nc1c(-c2cc3sc(-c4ccc(CC(=O)O)c(C(F)(F)F)c4)cc3s2)nnn1C)c1ccccc1` [IT223], the EC50 lay within 50 to 500 nM.
With `Cc1nsc(-c2cc3sc(-c4cc(F)c(CC(=O)O)cc4F)cc3s2)c1NC(=O)O[C@H](C)c1ccccc1` [IT326], the EC50 lay within 50 to 500 nM.
The same measure for `C[C@@H](OC(=O)Nc1c(-c2cc3sc(-c4ccc(C5(C(=O)O)CC5)c(Cl)c4)cc3s2)cnn1C)c1ccccc1` [IT367]: < 50 nM; for `Cc1nsc(-c2cc3sc(-c4ccc(C5(C(=O)O)CC5)s4)cc3s2)c1NC(=O)O[C@H](C)c1ccccc1` [IT274]: 50 to 500 nM; for `C[C@@H](OC(=O)Nc1c(-c2cc3sc(-c4ccc5scc(C6(C(=O)O)CC6)c5c4)cc3s2)nnn1C)c1ccccc1` [IT372]: > 500 nM.
For the compound `COc1cc(C2(C(=O)O)CC2)ccc1-c1cc2sc(-c3cnn(C)c3NC(=O)O[C@H](C)c3ccccc3)cc2s1` [IT264], the EC50 was 50 to 500 nM.
`Cc1nsc(-c2cc3sc(-c4ccc(CC(=O)O)cc4Cl)cc3s2)c1NC(=O)O[C@H](C)c1ccccc1` [IT161]: the EC50 is > 500 nM.
The same measure for `COc1cc(C2(C(=O)O)CC2)ccc1-c1cc2sc(-c3snc(C)c3NC(=O)O[C@H](C)c3ccccc3)cc2s1` [IT360]: > 500 nM.
The same measure for `Cc1nsc(-c2cc3sc(-c4ccc(CC(=O)O)c(C(F)(F)F)c4)cc3s2)c1NC(=O)O[C@H](C)c1ccccc1` [IT204]: > 500 nM; for `C[C@@H](OC(=O)Nc1c(-c2cc3sc(-c4ccc(CC(=O)O)nc4)cc3s2)nnn1C)c1ccccc1` [IT215]: 50 to 500 nM.
For `C[C@@H](OC(=O)Nc1c(-c2cc3sc(-c4cc(F)c(CC(=O)O)cc4F)cc3s2)cnn1C)c1ccccc1` [IT327] the value was 50 to 500 nM; for `C[C@@H](OC(=O)Nc1c(-c2ccc(-c3nnc(CC(=O)O)o3)cc2)nnn1C)c1ccccc1` [IT143], > 500 nM.
Turning to `C[C@@H](OC(=O)Nc1c(-c2cc3sc(-c4cc(F)c(Oc5ncccc5C(=O)O)c(F)c4)cc3s2)cnn1C)c1ccccc1` [IT470], the EC50 was < 50 nM.
